Measurements published in patent US10633389B2, “CARM1 inhibitors and uses thereof” (Epizyme, Inc., priority 2013, dated 2020).
pIC50: −log10 of the molar value.

Test system: asymmetric di-methyl PABP1 in RKO cells
Experiment: RKO methylation assay, In Cell Western (ICW) for asymmetric di-methyl PABP1
Format: cell-based
Conditions: Homo sapiens, RKO, Cellular potencies, ICW PABP1me2a
Summary of the method: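 RKO cells treated with compound for 48 h at 37 °C, then fixed, permeabilized and immunostained for asymmetric di-methyl PABP1, with DRAQ5 as DNA stain. Infrared 700/800 nm signal ratio normalized to DMSO and 20 μM reference-compound controls; IC50 from triplicate wells.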

pIC50	SMILES
> 5.30	CNC[C@@H](O)COc1ccc(F)c(-c2nc(-c3c(C)noc3C)c(C)c(N3CC4(CCCCO4)C3)n2)c1 [Example 269-3]
> 5.30	CNC[C@@H](O)COc1ccc(Cl)c(-c2nc(-c3c(C)noc3C)c(C)c(N3Cc4cnn(C5CC5)c4C3)n2)c1 [Example 270-3]
> 5.30	CNC[C@@H](O)COc1ccc(Cl)c(-c2nc(-c3c(C)noc3C)c(C)c(N3Cc4cn(C(C)C)nc4C3)n2)c1 [Example 272-3]
5.00 to 5.30	CNCC(O)COc1ccc(Cl)c(-c2nc(NC3CCOCC3)c(C)c(-c3c(CO)noc3C)n2)c1 (centres unmarked) [Example 273-3]
> 5.30	CNC[C@@H](O)COc1ccc(F)c(-c2nc(-c3c(C)noc3C)cc(N3Cc4nccnc4C3)n2)c1 [Example 274-3]
> 5.30	CNC[C@@H](O)COc1ccc(F)c(-c2nc(-c3c(C)noc3C)cc(N3Cc4cnn(C)c4C3)n2)c1 [Example 275-3]
> 5.30	CNC[C@@H](O)COc1ccc(F)c(-c2nc(-c3c(C)noc3C)cc(N3CC4(CCOCC4)C3)n2)c1 [Example 277-3]
4.70 to 5.00	CNC[C@@H](O)COc1cccc(-c2nc(NC3CCN(C(=O)OC)CC3)cc(-c3c(C)nnn3C)n2)c1 [Example 278-3]
4.70 to 5.00	CNC[C@@H](O)COc1ccc(Cl)c(-c2nc(-c3c(C)noc3C)c(C)c(N3Cc4[nH]c(=O)[nH]c(=O)c4C3)n2)c1 [Example 279-3]
> 5.30	CNC[C@@H](O)COc1ccc(F)c(-c2nc(-c3c(C)noc3C)c(C)c(N3CC4(CCN(CC(F)F)CC4)C3)n2)c1 [Example 280-3]
> 5.30	CNC[C@@H](O)COc1ccc(F)c(-c2nc(-c3c(C)noc3C)c(C)c(N3CC4(CCN(C(=O)OC(C)C)CC4)C3)n2)c1 [Example 281-3]
> 5.30	CCOC(=O)N1CCC2(CC1)CN(c1nc(-c3cc(OC[C@H](O)CNC)ccc3F)nc(-c3c(C)noc3C)c1C)C2 [Example 282-3]
> 5.30	CNC[C@@H](O)COc1ccc(Cl)c(-c2nc(-c3c(C)noc3C)c(C)c(N3CC4(CCN(CC(F)F)CC4)C3)n2)c1 [Example 283-3]
> 5.30	CNC[C@@H](O)COc1ccc(Cl)c(-c2nc(-c3c(C)noc3C)c(C)c(N3CC4(CCN(C(=O)OC(C)C)CC4)C3)n2)c1 [Example 284-3]
> 5.30	CCOC(=O)N1CCC2(CC1)CN(c1nc(-c3cc(OC[C@H](O)CNC)ccc3Cl)nc(-c3c(C)noc3C)c1C)C2 [Example 285-3]
> 5.30	CNC[C@@H](O)COc1ccc(Cl)c(-c2nc(-c3c(C)noc3C)c(C)c(N3CC4(CCN(C(=O)OC(C)C)C4)C3)n2)c1 [Example 286-3]
> 5.30	CCOC(=O)N1CCC2(C1)CN(c1nc(-c3cc(OC[C@H](O)CNC)ccc3Cl)nc(-c3c(C)noc3C)c1C)C2 [Example 287-3]
> 5.30	CNC[C@@H](O)COc1ccc(Cl)c(-c2nc(-c3c(C)noc3C)c(C)c(N3CCC4(CCOC4)C3)n2)c1 (some centres unmarked) [Example 288-3]
> 5.30	CNC[C@@H](O)COc1ccc(Cl)c(-c2nc(-c3c(C)noc3C)c(C)c(N3CCC4(CCCO4)C3)n2)c1 (some centres unmarked) [Example 289-3]
> 5.30	CNC[C@@H](O)COc1ccc(Cl)c(-c2nc(-c3c(C)noc3C)c(C)c(N3CC4(CCCCO4)C3)n2)c1 [Example 290-3]
> 5.30	CCN1CCC(Nc2nc(-c3cc(OC[C@H](O)CNC)ccc3Cl)nc(-c3c(C)noc3C)c2C)C(F)(F)C1 (some centres unmarked) [Example 291-3]
> 5.30	CNC[C@@H](O)COc1ccc(Cl)c(-c2nc(NC3CCN(C4CC4)CC3(F)F)c(C)c(-c3c(C)noc3C)n2)c1 (some centres unmarked) [Example 292-3]
> 5.30	CNC[C@@H](O)COc1ccc(Cl)c(-c2nc(-c3c(C)noc3C)c(C)c(N3Cc4cn(S(C)(=O)=O)nc4C3)n2)c1 [Example 293-3]
> 5.30	CNC[C@@H](O)COc1ccc(F)c(-c2nc(-c3c(C)noc3C)c(Cl)c(N3CC4(CCOCC4)C3)n2)c1 [Example 294-3]
> 5.30	CNC[C@@H](O)COc1ccc(F)c(-c2nc(-c3c(C)noc3C)c(Cl)c(N3Cc4nccnc4C3)n2)c1 [Example 295-3]
> 5.30	CNC[C@@H](O)COc1ccc(Cl)c(-c2nc(-c3c(C)noc3C)c(C)c(N3Cc4cc(C)cnc4C3)n2)c1 [Example 296-3]
> 5.30	CNC[C@@H](O)COc1ccc(Cl)c(-c2nc(-c3c(C)noc3C)c(F)c(N3Cc4nccnc4C3)n2)c1 [Example 297-3]

Second part, the compound before the results:

SMILES	pIC50
CNCC(O)COc1cccc(-c2nc(N[C@@H]3C[C@H]4CC[C@@H](C3)N4C(=O)OC)c(C)c(-c3c(C)noc3C)n2)c1 (some centres unmarked) [Example 265-1a]	> 5.30
CNC[C@@H](O)COc1ccc(Cl)c(-c2nc(-c3c(C)noc3C)c(C)c(N3Cc4cnn(CC(F)(F)F)c4C3)n2)c1 [Example 265-3]	> 5.30
CNCC(O)COc1cccc(-c2nc(N[C@H]3C[C@H]4CC[C@@H](C3)N4C(=O)OC)c(C)c(-c3c(C)noc3C)n2)c1 (some centres unmarked) [Example 266-1a]	> 5.30
CNC[C@@H](O)COc1ccc(F)c(-c2nc(-c3c(C)noc3C)c(C)c(N3Cc4cccc(F)c4C3)n2)c1 [Example 266-3]	> 5.30
CNCC(O)COc1cccc(-c2nc(N[C@H]3COC(=O)C3)c(C)c(-c3c(C)noc3C)n2)c1 (some centres unmarked) [Example 267-1a]	4.70 to 5.00
CNC[C@@H](O)COc1ccc(Cl)c(-c2nc(-c3c(C)noc3C)c(C)c(N3Cc4cccc(F)c4C3)n2)c1 [Example 267-3]	> 5.30
CNCC(O)COc1cccc(-c2nc(N[C@@H]3COC(=O)C3)c(C)c(-c3c(C)noc3C)n2)c1 (some centres unmarked) [Example 268-1a]	4.70 to 5.00
CNC[C@@H](O)COc1ccc(Cl)c(-c2nc(-c3c(C)noc3C)c(C)c(C3CCOCC3)n2)c1 [Example 268-3]	> 5.30
CNCC(O)COc1cccc(-c2nc(NC3CCOCC3C)c(C)c(-c3c(C)noc3C)n2)c1 (centres unmarked) [Example 269-1a]	> 5.30
CNCC(O)COc1ccc(Cl)c(-c2nc(NC3CCN(C(=O)OC)CC3)c(C)c(-c3c(C)noc3C)n2)c1 (centres unmarked) [Example 270-1a]	> 5.30
CNCC(O)COc1cccc(-c2nc(N[C@@H]3CCOC[C@@H]3F)c(C)c(-c3c(C)noc3C)n2)c1 (some centres unmarked) [Example 271-1a]	> 5.30
CCS(=O)(=O)N1CC(Nc2nc(-c3cccc(OCC(O)CNC)c3)nc(-c3c(C)noc3C)c2C)C1 (centres unmarked) [Example 273-1a]	4.70 to 5.00
CNCC(O)COc1cccc(-c2nc(NC[C@H]3COCCN3CC(F)F)c(C)c(-c3c(C)noc3C)n2)c1 (some centres unmarked) [Example 274-1a]	> 5.30
CNCC(O)COc1cccc(-c2nc(NC3CN(C(=O)OC)C3)c(C)c(-c3c(C)noc3C)n2)c1 (centres unmarked) [Example 275-1a]	4.70 to 5.00
CCc1onc(C)c1-c1nc(-c2cccc(OCC(O)CNC)c2)nc(NC2CCOCC2)c1C (centres unmarked) [Example 276-1a]	> 5.30
CCOC(=O)N1CCOC[C@@H]1CNc1nc(-c2cccc(OC[C@H](O)CNC)c2)nc(-c2c(C)noc2C)c1C [Example 277-1a]	> 5.30
CCOC(=O)N1CCOC[C@@H]1CNc1nc(-c2cccc(OC[C@@H](O)CNC)c2)nc(-c2c(C)noc2C)c1C [Example 278-1a]	> 5.30
CNCC(O)COc1cccc(-c2nc(N[C@H]3CCOC[C@@H]3F)c(C)c(-c3c(C)noc3C)n2)c1 (some centres unmarked) [Example 279-1a]	> 5.30
CNCC(O)COc1cccc(-c2nc(NC3C[C@@H](O)[C@H](O)C3)c(C)c(-c3c(C)noc3C)n2)c1 (some centres unmarked) [Example 280-1a]	4.70 to 5.00

SMILES	pIC50
CNCC(O)COc1cccc(-c2nc(N[C@H]3CCOC3=O)c(C)c(-c3c(C)noc3C)n2)c1 (some centres unmarked) [Example 281-1a]	4.70 to 5.00
CNCC(O)COc1cccc(-c2nc(N[C@H]3[C@@H]4CN(C(=O)OC)C[C@@H]43)c(C)c(-c3c(C)noc3C)n2)c1 (some centres unmarked) [Example 282-1a]	> 5.30
CNCC(O)COc1cccc(-c2nc(NCC3CCN(C4CC4)CC3)c(C)c(-c3c(C)noc3C)n2)c1 (centres unmarked) [Example 283-1a]	> 5.30
CNCC(O)COc1cccc(-c2nc(OCC3CCN(C(=O)OC)CC3)c(C)c(-c3c(C)noc3C)n2)c1 (centres unmarked) [Example 284-1a]	> 5.30
CNCC(O)COc1cccc(-c2nc(OCC3CCN(C(=O)N(C)C)CC3)c(C)c(-c3c(C)noc3C)n2)c1 (centres unmarked) [Example 285-1a]	> 5.30
CNCC(O)COc1cccc(-c2nc(OCC3CCN(S(C)(=O)=O)CC3)c(C)c(-c3c(C)noc3C)n2)c1 (centres unmarked) [Example 286-1a]	> 5.30
CNCC(O)COc1cccc(-c2nc(OCC3CCN(C(C)=O)CC3)c(C)c(-c3c(C)noc3C)n2)c1 (centres unmarked) [Example 287-1a]	> 5.30
CNCC(O)COc1cccc(-c2nc(OCC3CCN(CC(F)F)CC3)c(C)c(-c3c(C)noc3C)n2)c1 (centres unmarked) [Example 288-1a]	> 5.30
CNCC(O)COc1cccc(-c2nc(OCC3CCNCC3)c(C)c(-c3c(C)noc3C)n2)c1 (centres unmarked) [Example 289-1a]	5.00 to 5.30
CNCC(O)COc1cccc(-c2nc(NC3CCOC(C)(C)C3)c(C)c(-c3c(C)noc3C)n2)c1 (centres unmarked) [Example 290-1a]	> 5.30
CNCC(O)COc1cccc(-c2nc(N[C@@H]3CCOC3=O)c(C)c(-c3c(C)noc3C)n2)c1 (some centres unmarked) [Example 291-1a]	4.70 to 5.00
CNCC(O)COc1cccc(-c2nc(NC3CCC3)c(C)c(-c3c(C)noc3C)n2)c1 (centres unmarked) [Example 292-1a]	> 5.30
CNCC(O)COc1cccc(-c2nc(NC3CC3)c(C)c(-c3c(C)noc3C)n2)c1 (centres unmarked) [Example 293-1a]	> 5.30
CNCC(O)COc1cccc(-c2nc(-c3c(C)noc3C)c(C)c(N3CCC4(CC3)CN(C3CC3)C4)n2)c1 (centres unmarked) [Example 294-1a]	> 5.30
CCOC(=O)N1CC2(CCCN(c3nc(-c4cccc(OCC(O)CNC)c4)nc(-c4c(C)noc4C)c3C)C2)C1 (centres unmarked) [Example 295-1a]	> 5.30
CCS(=O)(=O)N1CC2(CCCN(c3nc(-c4cccc(OCC(O)CNC)c4)nc(-c4c(C)noc4C)c3C)C2)C1 (centres unmarked) [Example 296-1a]	5.00 to 5.30
CNCC(O)COc1cccc(-c2nc(-c3c(C)noc3C)c(C)c(N3CCCC4(CN(C(=O)N(C)C)C4)C3)n2)c1 (centres unmarked) [Example 297-1a]	5.00 to 5.30
CNCC(O)COc1cccc(-c2nc(-c3c(C)noc3C)c(C)c(N3CC(CO)(CNC(=O)N(C)C)C3)n2)c1 (centres unmarked) [Example 298-1a]	4.70 to 5.00
CNCC(O)COc1cccc(-c2nc(-c3c(C)noc3C)c(C)c(N3CC4(CN(C(=O)OC)C4)C3)n2)c1 (centres unmarked) [Example 299-1a]	> 5.30
